pIC50: −log10 of the molar value.
Target: HPK1 (MAP4K1) (Homo sapiens, UniProt Q92918)
Assay: FRET Assay for HPK1 (MAP4K1): one step binding assay, displacement of labeled tracer
Details: for inhibition at 1 µM: 1 μM compound; for inhibition at 1 µM / inhibition at 10 µM: FRET ratio 665/620, percent of control; for inhibition at 10 µM: 10 μM compound; for pIC50: dose response curve, nonlinear regression
Excerpt: FRET Assay for HPK1 (MAP4K1):
This is a one step binding assay based on the binding and displacement of the labeled tracer, where compound addition is followed by addition of the anti-GST tagged europium (Eu) as the donor and Alexa Fluor-labeled tracer as the acceptor. Simultaneous binding of both the tracer and GST-antibody to the kinase domain of HPK1 results in a high degree of FRET (fluorescence resonance energy transfer) from the anti-GST tagged europium (Eu) fluorophore to the Alexa Fluor® 647 fluorophore on the kinase tracer and this signal is reduced in presence of the inhibitor that can be measured.
Test compounds or reference compounds such as Sunitinib (Sigma) were dissolved in dimethylsulfoxide (DMSO) to prepare 10.0 mM stock solutions and diluted to the desired concentration. The final concentration of DMSO in the reaction was 3% (v/v). The assay mixture was prepared by mixing 4 nM of the Eu-Anti-GST Antibody and 10 nM MAP4K-1 enzyme in the Kinase buffer containing 50mM HEPES (pH 7.5), 10 mM MgCl2, 1 mM EGTA, 0.01% Brij-35 with or without the desired concentration of the compound. The reaction was incubated on ice for 15 mins. The pre-incubation step was followed by addition of the 20 nM Kinase Tracer 222 into the reaction mixture. After shaking for 5 min the reaction was further incubated for 1 hour at room temperature and this was kept at 4° C. and read on ARTEMIS reader as per the kit instructions (Thermo). […] The activity was calculated as percent of control reaction. IC50 values were calculated from dose response curve by nonlinear regression analysis using GraphPad Prism software.
Percentage inhibition at concentrations of 1.0 μM and 10.0 μM are given in the table along with IC50 (nM) details for selected examples.

Chain of HPK1 (MAP4K1) (Q92918 whole entry): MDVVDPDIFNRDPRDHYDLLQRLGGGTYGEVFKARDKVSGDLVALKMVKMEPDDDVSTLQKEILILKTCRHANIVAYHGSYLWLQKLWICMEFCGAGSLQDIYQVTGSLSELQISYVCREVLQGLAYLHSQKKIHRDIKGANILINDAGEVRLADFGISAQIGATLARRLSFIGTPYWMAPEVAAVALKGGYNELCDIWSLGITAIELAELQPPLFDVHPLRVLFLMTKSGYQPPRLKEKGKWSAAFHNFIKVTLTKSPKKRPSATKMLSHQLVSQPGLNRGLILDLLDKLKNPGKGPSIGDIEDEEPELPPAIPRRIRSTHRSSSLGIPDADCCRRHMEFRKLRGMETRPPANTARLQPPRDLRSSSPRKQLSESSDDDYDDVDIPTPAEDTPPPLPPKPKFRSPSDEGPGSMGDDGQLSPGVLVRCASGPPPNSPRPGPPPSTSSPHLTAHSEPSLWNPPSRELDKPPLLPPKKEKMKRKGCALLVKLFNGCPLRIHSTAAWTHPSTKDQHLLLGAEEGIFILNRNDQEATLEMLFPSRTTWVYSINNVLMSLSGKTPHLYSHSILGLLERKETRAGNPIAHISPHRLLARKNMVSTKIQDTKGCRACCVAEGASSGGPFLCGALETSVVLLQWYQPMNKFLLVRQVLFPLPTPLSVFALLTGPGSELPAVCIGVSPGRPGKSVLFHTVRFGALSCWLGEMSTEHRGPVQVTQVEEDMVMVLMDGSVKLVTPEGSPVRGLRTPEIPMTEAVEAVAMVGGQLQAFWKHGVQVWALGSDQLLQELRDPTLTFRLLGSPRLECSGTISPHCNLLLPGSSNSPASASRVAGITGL

Q: How did the inhibition at 1 µM turn out when `Cc1ccncc1-c1cc2c(cn1)NC(=O)/C2=C(\Nc1cnn(C)c1)C(C)C` [Example 48, (Z)-3-(2-Methyl-1-((1-methyl-1H-pyrazol-4-yl)amino)propylidene)-5-(4-methylpyridin-3-yl)-1H-pyrrolo[2,3-c]pyridin-2(3H)-one] was run?
A: 77.2%

Q: What about the inhibition at 10 µM of the same molecule?
A: 84.8%

Q: What about the pIC50 of the same molecule?
A: 7.00 to 7.30

Q: With `C/C(Nc1cnn(C2CC2)c1)=C1/C(=O)Nc2cnc(-c3cnccc3C)cc21` [Example 49, (Z)-3-(1-((1-Cyclopropyl-1H-pyrazol-4-yl)amino)ethylidene)-5-(4-methylpyridin-3-yl)-1H-pyrrolo[2,3-c]pyridin-2(3H)-one] as the molecule, how does the inhibition at 1 µM read?
A: 64.3%

Q: And the inhibition at 10 µM?
A: 74.2%

Q: What about the pIC50 of the same molecule?
A: > 7.30

Q: What does the source list for `CCn1cc(N/C(C)=C2\C(=O)Nc3cnc(-c4cnccc4C)cc32)cn1` [Example 50, (Z)-3-(1-((1-Ethyl-1H-pyrazol-4-yl)amino)ethylidene)-5-(4-methylpyridin-3-yl)-1H-pyrrolo[2,3-c]pyridin-2(3H)-one]?
A: inhibition at 1 µM: 82.8%; inhibition at 10 µM: 87.9%; pIC50: > 7.30

Q: What does the source list for `C/C(Nc1cnn(C)c1)=C1/C(=O)Nc2cnc(-c3cncc(N)c3C)cc21` [Example 51, (Z)-5-(5-Amino-4-methylpyridin-3-yl)-3-(1-((1-methyl-1H-pyrazol-4-yl)amino)ethylidene)-1H-pyrrolo[2,3-c]pyridin-2(3H)-one]?
A: inhibition at 1 µM: 81.2%; inhibition at 10 µM: 84.2%; pIC50: > 7.30

Q: Which inhibition at 1 µM does the source give for `C/C(Nc1cnn(C2COC2)c1)=C1/C(=O)Nc2cnc(-c3cnccc3C)cc21` [Example 52, (Z)-5-(4-Methylpyridin-3-yl)-3-(1-((1-(oxetan-3-yl)-1H-pyrazol-4-yl)amino)ethylidene)-1H-pyrrolo[2,3-c]pyridin-2(3H)-one] here?
A: 86.1%

Q: What about the inhibition at 10 µM of the same molecule?
A: 84.9%

Q: What about the pIC50 of the same molecule?
A: > 7.30

Q: How did the inhibition at 1 µM turn out when `C/C(Nc1cnn(C(C)(C)C#N)c1)=C1/C(=O)Nc2cnc(-c3cnccc3C)cc21` [Example 53, (Z)-2-Methyl-2-(4-((1-(5-(4-methylpyridin-3-yl)-2-oxo-1H-pyrrolo[2,3-c]pyridin-3(2H)-ylidene)ethyl)amino)-1H-pyrazol-1-yl)propanenitrile] was run?
A: 87.1%

Q: And the inhibition at 10 µM?
A: 85.4%

Q: What about the pIC50 of the same molecule?
A: > 7.30

Q: With `C/C(Nc1ccn(C)n1)=C1/C(=O)Nc2cnc(-c3cnccc3C)cc21` [Example 54, (Z)-3-(1-((1-methyl-1H-pyrazol-3-yl)amino)ethylidene)-5-(4-methylpyridin-3-yl)-1H-pyrrolo[2,3-c]pyridin-2(3H)-one] as the molecule, how does the inhibition at 1 µM read?
A: 88.5%

Q: What about the inhibition at 10 µM of the same molecule?
A: 86.1%

Q: What about the pIC50 of the same molecule?
A: > 7.30

Q: How did the inhibition at 1 µM turn out when `C/C(Nc1cnn(C)c1)=C1/C(=O)Nc2cnc(-c3c(C)noc3C)cc21` [Example 55, (Z)-5-(3,5dimethylisoxazol-4-yl)-3-(1-((1-methyl-1H-pyrazol-4-yl)amino)ethylidene)-1H-pyrrolo[2,3-c]pyridin-2(3H)-one] was run?
A: 78%

Q: And the inhibition at 10 µM?
A: 90%

Q: And the pIC50?
A: 7.00 to 7.30

Q: What does the source list for `COc1cccc(F)c1-c1cnc2c(c1)/C(=C(\C)Nc1cnn(C)c1)C(=O)N2` [Example 56, (Z)-5-(2-Fluoro-6-methoxyphenyl)-3-(1-((1-methyl-1H-pyrazol-4-yl)amino)ethylidene)-1H-pyrrolo[2,3-b]pyridin-2(3H)-one]?
A: inhibition at 1 µM: 66.8%; inhibition at 10 µM: 75.2%; pIC50: 6.30 to 7.00

Q: What does the source list for `C/C(Nc1cnn(C2CCOCC2)c1)=C1/C(=O)Nc2cnc(-c3cnccc3C)cc21` [Example 57, (Z)-5-(4-Methylpyridin-3-yl)-3-(1-((1-(tetrahydro-2H-pyran-4-yl)-1H-pyrazol-4-yl)amino)ethylidene)-1H-pyrrolo[2,3-c]pyridin-2(3H)-one]?
A: inhibition at 1 µM: 80.9%; inhibition at 10 µM: 94.1%; pIC50: > 7.30

Q: `C/C(Nc1ccc(N2CCNCC2)cc1)=C1/C(=O)Nc2cnc(-c3cnccc3C)cc21` [Example 58, (Z)-5-(4-Methylpyridin-3-yl)-3-(1-((4-(piperazin-1-yl)phenyl)amino)ethylidene)-1H-pyrrolo[2,3-c]pyridin-2(3H)-one] was tested. Which inhibition at 1 µM did it give?
A: 71%

Q: What about the inhibition at 10 µM of the same molecule?
A: 72.7%

Q: What about the pIC50 of the same molecule?
A: > 7.30
